# No end group written: not given here.
# Tests used:
# hA5 A83m = experiment: ITC of peptide binding to hA5 A83m mutant; parameters: species or system Homo sapiens; settings: single ancestral reversion in hA5
# human S100A5 (hA5) = molecular target: T1, human S100A5 (hA5) (Homo sapiens, UniProt P33763); experiment: ITC of peptide binding to human S100A5; settings: 2 mM CaCl2, pH 7.4
# T1 sequence (P33763 1-92): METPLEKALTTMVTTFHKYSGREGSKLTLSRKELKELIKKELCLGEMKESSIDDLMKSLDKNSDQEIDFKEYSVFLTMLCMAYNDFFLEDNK
# [1] = test system: ancA6 (last common ancestor of S100A6 orthologs); experiment: ITC of peptide binding to reconstructed ancestor ancA6
# S100A6 orthologs = experiment: ITC of peptide binding to S100A6 orthologs; settings: 2 mM CaCl2, pH 7.4
# human S100A6 (hA6) = human S100A6 (hA6) (Homo sapiens, UniProt P06703); experiment: ITC of peptide binding to human S100A6; settings: single-site model
sequence,measurement,setting,value
SEGLMNVLKKIYEDGDDDMKRTINKAWVESR [SIP],binding to hA5 A83m (in words),hA5 A83m,enabled it to bind
same,binding to hA5 (in words),human S100A5 (hA5),did not bind
same,binding to ancA6 (in words),[1],binding
same,binding to all S100A6 orthologs (in words),S100A6 orthologs,bound
same,fx comp,"human S100A6 (hA6); ITC fit parameter, same buffer",1.5 ± 0.1
same,ΔH°,"human S100A6 (hA6); ITC, 25 mM TES, 100 mM NaCl, 2 mM CaCl2, 1 mM TCEP, pH 7.4, Bayesian fit",2.9 ± 0.3 kcal/mol
